Measured values: patent publication US20200181095A1, “SELECTIVE MATRIX METALLOPROTEINASE-13 INHIBITORS” (FLORIDA ATLANTIC UNIVERSITY BOARD OF TRUSTEES, priority 2017, published 2020)
Where “and” joins values, the source holds several entries; their conditions need not be identical. Equal values may be shown once. Read-outs that look alike come from different tables or passages of the source.

Legend:
Assay type in all cases: biochemical
[1] = molecular target: T1, MMP-13 (Homo sapiens, UniProt P45452); experiment: MMP-13 IC50 enzyme assay with fTHP-15 substrate; settings: for IC50: fTHP substrate
T1 construct: purchased R&D Systems 511-MM
Description: Inhibitor kinetics: Inhibition experiments were conducted as described previously.^3 Briefly, fTHP-15, MMP-13, and inhibitor working solutions were prepared in EAB.
The enzyme was allowed to incubate with the test compounds for 30 min at 25° C. The assays were initiated by addition of 5 μL of fTHP-15 or Knight substrate and immediately placed in the microplate reader to record fluorescence.
To determine IC50 values of each compound, the relative fluorescence units (RFU) from wells containing MMP-13, fTHP-15, and inhibitors were plotted vs. no-enzyme and untreated controls.

[2] = molecular target: T1, MMP-13; experiment: MMP-13 inhibition constant (Ki) determination, fTHP-15; settings: fTHP-15 substrate, 4 nM MMP-13, mixed inhibition model
Description: Rates of hydrolysis were obtained from plots of fluorescence versus time using data points from only the linear portion of the hydrolysis curve.
KM values were determined by nonlinear regression analysis using the one-site hyperbolic binding model^4 and additionally evaluated by linear analysis. All Ki values were determined by nonlinear regression (hyperbolic equation) analysis using the mixed inhibition model, which allows for simultaneous determination of the mechanism of inhibition, The mechanism of inhibition was determined using the “α” parameter derived from a mixed-model inhibition by GraphPad Prism. The mechanism of inhibition was additionally confirmed by Lineweaver-Burke plots.

[3] = molecular target: T2, MMP-2 (Homo sapiens, UniProt P08253); experiment: Selectivity assay MMP-2 (fTHP-15); settings: 200 nM
T2 construct: purchased R&D Systems
Description: (§1) All enzymes were purchased from R&D Systems and activated according to manufacturer's instructions. Upon activation, each enzyme was diluted in EAB to […] and stored at −80° C. until further use. […]

[4] = molecular target: T3, MMP-8 (Homo sapiens, UniProt P22894); experiment: Selectivity assay MMP-8 (fTHP-15); settings: 200 nM
T3 construct: purchased R&D Systems
Description: as §1

[5] = molecular target: ACE (Homo sapiens, UniProt P12821); experiment: Protease selectivity profiling; parameters: inhibition: dose or concentration left out as unconfirmed
[6] = molecular target: ACE2 (Homo sapiens, UniProt Q9BYF1); experiment: Protease selectivity profiling; parameters: inhibition: dose or concentration left out as unconfirmed
[7] = molecular target: ADAM10 (Homo sapiens, UniProt O14672); experiment: Protease selectivity profiling; parameters: inhibition: dose or concentration left out as unconfirmed
[8] = molecular target: BACE-1 (Homo sapiens, UniProt P56817); experiment: Protease selectivity profiling; parameters: inhibition: dose or concentration left out as unconfirmed
Chain of BACE-1 (P56817 46-501, species assumed): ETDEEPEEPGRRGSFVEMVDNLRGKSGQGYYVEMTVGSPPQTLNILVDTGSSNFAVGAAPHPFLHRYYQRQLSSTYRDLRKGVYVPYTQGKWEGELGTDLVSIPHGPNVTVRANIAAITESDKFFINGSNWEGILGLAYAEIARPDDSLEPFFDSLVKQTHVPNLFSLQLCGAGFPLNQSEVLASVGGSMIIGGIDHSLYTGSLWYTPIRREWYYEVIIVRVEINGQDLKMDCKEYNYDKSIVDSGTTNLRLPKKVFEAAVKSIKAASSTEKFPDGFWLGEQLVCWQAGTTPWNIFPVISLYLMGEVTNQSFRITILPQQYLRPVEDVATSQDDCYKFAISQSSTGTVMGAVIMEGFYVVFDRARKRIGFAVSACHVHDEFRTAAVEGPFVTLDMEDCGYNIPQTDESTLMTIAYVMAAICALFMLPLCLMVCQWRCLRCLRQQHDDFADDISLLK

[9] = molecular target: Caspase-1 (Homo sapiens, UniProt P29466); experiment: Protease selectivity profiling; parameters: inhibition: dose or concentration left out as unconfirmed
Chain of Caspase-1 (P29466 120-297 limits assumed, species assumed): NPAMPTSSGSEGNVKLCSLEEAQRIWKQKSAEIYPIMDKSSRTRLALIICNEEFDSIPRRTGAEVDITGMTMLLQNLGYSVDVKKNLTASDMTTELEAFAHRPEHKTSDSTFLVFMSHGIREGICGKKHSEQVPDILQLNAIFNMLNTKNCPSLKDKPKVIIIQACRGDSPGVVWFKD
Chain of Caspase-1 (P29466 317-404 limits assumed, species assumed): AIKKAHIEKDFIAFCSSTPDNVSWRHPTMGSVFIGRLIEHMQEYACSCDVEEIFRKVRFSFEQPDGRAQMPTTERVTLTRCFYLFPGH

[10] = molecular target: Caspase-2 (Homo sapiens, UniProt P42575); experiment: Protease selectivity profiling; parameters: inhibition: dose or concentration left out as unconfirmed
Chain of Caspase-2 (P42575 170-325 limits assumed, species assumed): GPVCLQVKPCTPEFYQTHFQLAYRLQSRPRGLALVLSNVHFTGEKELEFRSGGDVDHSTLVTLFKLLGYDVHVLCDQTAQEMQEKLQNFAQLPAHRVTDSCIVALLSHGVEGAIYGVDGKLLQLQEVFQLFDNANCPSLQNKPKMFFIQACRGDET
Chain of Caspase-2 (P42575 348-452 limits assumed, species assumed): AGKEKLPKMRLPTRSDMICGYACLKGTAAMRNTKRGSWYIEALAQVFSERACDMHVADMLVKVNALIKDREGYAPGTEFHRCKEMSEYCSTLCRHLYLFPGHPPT

[11] = molecular target: Caspase-3 (Homo sapiens, UniProt P42574); experiment: Protease selectivity profiling; parameters: inhibition: dose or concentration left out as unconfirmed
Chain of Caspase-3 (P42574 29-175 limits assumed, species assumed): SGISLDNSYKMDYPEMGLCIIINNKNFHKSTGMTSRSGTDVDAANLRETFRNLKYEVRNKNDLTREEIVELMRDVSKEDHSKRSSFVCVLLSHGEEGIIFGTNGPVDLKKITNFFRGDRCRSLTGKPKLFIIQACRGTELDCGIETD
Chain of Caspase-3 (P42574 176-277 limits assumed, species assumed): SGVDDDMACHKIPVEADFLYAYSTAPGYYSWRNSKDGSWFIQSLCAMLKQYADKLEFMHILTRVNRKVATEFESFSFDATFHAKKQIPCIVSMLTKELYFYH

[12] = molecular target: Caspase-5 (Homo sapiens, UniProt P51878); experiment: Protease selectivity profiling; parameters: inhibition: dose or concentration left out as unconfirmed
Chain of Caspase-5 (P51878 138-327 limits assumed, species assumed): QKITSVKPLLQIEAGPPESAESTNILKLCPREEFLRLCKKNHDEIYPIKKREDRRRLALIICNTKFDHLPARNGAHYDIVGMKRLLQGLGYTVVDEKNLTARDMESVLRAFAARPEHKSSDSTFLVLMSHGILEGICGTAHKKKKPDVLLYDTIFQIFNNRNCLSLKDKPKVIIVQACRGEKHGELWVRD
Chain of Caspase-5 (P51878 347-434 limits assumed, species assumed): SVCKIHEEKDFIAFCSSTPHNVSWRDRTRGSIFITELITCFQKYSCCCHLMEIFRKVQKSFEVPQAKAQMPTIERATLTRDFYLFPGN

[13] = molecular target: Caspase-6 (Homo sapiens, UniProt P55212); experiment: Protease selectivity profiling; parameters: inhibition: dose or concentration left out as unconfirmed
Chain of Caspase-6 (P55212 24-179 limits assumed, species assumed): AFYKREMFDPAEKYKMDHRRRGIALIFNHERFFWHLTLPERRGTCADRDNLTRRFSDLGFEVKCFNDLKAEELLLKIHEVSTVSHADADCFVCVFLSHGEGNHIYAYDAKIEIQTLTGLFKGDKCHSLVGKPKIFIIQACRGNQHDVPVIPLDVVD
Chain of Caspase-6 (P55212 194-293 limits assumed, species assumed): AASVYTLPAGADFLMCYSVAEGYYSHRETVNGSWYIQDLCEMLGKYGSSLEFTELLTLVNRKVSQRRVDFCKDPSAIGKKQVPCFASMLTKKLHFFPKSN

[14] = molecular target: Caspase-7 (Homo sapiens, UniProt P55210); experiment: Protease selectivity profiling; parameters: inhibition: dose or concentration left out as unconfirmed
Chain of Caspase-7 (P55210 24-198 limits assumed, species assumed): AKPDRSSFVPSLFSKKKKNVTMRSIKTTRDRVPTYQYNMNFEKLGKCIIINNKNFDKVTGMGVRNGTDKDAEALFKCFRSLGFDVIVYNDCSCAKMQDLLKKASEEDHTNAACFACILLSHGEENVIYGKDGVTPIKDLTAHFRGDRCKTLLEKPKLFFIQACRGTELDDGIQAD
Chain of Caspase-7 (P55210 207-303 limits assumed, species assumed): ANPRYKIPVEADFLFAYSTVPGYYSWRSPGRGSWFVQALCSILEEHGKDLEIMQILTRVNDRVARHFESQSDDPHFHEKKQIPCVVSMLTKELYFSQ

[15] = molecular target: Cathepsin-D (Homo sapiens, UniProt P07339); experiment: Protease selectivity profiling; parameters: inhibition: dose or concentration left out as unconfirmed
[16] = molecular target: Cathepsin-K (Homo sapiens, UniProt P43235); experiment: Protease selectivity profiling; parameters: inhibition: dose or concentration left out as unconfirmed
Chain of Cathepsin-K (P43235 115-329, species assumed): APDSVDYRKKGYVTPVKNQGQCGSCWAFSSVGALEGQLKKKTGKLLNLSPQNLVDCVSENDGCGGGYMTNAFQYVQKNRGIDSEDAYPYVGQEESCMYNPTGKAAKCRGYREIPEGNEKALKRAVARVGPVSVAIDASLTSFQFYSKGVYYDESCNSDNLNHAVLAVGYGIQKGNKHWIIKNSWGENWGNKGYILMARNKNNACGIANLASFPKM

[17] = molecular target: Cathepsin-L (Homo sapiens, UniProt P07711); experiment: Protease selectivity profiling; parameters: inhibition: dose or concentration left out as unconfirmed
Chain of Cathepsin-L (P07711 114-333, species assumed): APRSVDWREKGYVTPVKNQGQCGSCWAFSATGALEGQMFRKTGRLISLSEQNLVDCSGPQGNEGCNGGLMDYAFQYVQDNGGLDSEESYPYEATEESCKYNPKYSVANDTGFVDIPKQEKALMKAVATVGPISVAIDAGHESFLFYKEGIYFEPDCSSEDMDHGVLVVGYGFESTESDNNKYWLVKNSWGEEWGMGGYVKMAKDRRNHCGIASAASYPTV

[18] = molecular target: Cathepsin-S (Homo sapiens, UniProt P25774); experiment: Protease selectivity profiling; parameters: inhibition: dose or concentration left out as unconfirmed
Chain of Cathepsin-S (P25774 115-331, species assumed): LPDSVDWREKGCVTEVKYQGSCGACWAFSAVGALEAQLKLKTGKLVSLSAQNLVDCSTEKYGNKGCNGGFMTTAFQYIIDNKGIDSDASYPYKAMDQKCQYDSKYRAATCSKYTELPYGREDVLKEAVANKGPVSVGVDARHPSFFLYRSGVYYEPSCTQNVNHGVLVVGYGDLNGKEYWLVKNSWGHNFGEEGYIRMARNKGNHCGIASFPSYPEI

[19] = molecular target: T4, Factor-XA (Homo sapiens, UniProt P00742); experiment: Protease selectivity profiling; parameters: inhibition: dose or concentration left out as unconfirmed
T4 construct: Factor-XA

[20] = molecular target: Furin (Homo sapiens, UniProt P09958); experiment: Protease selectivity profiling; parameters: inhibition: dose or concentration left out as unconfirmed
Chain of Furin (P09958 108-794, species assumed): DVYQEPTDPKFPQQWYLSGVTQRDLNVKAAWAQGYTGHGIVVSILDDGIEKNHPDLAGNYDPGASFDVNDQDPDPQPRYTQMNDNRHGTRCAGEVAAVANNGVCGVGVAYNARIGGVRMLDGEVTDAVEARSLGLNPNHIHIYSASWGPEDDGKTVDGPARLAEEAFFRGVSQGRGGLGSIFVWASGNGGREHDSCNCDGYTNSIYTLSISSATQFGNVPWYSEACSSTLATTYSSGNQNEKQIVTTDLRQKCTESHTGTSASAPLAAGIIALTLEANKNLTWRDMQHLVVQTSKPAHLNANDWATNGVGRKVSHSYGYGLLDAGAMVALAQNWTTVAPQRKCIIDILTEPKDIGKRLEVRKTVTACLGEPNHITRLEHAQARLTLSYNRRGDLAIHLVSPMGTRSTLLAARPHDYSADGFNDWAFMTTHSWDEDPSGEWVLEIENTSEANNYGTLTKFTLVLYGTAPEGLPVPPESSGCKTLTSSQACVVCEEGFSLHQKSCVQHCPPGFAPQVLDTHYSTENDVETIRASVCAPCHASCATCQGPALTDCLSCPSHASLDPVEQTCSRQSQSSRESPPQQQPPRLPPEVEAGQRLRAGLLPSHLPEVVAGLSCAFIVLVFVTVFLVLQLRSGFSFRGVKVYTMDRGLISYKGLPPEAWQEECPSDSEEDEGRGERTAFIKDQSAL

[21] = molecular target: IDE (Homo sapiens, UniProt P14735); experiment: Protease selectivity profiling; parameters: inhibition: dose or concentration left out as unconfirmed
[22] = molecular target: MMP-3 (Homo sapiens, UniProt P08254); experiment: Protease selectivity profiling; settings: single stranded peptide substrate; inhibitor (text 1 μM); duplicates
[23] = molecular target: MMP-7 (Homo sapiens, UniProt P09237); experiment: Protease selectivity profiling; parameters: inhibition: dose or concentration left out as unconfirmed
Chain of MMP-7 (P09237 95-267, species assumed): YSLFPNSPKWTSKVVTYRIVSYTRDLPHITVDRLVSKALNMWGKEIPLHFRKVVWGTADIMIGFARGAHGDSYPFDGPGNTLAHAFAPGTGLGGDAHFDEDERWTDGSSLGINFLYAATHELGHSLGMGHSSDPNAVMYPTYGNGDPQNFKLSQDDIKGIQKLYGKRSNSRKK

[24] = molecular target: T5, MMP-12 (Homo sapiens, UniProt P39900); experiment: Protease selectivity profiling; settings: single stranded peptide substrate; inhibitor 1 mM (footnote; text 1 μM); duplicates
T5 sequence (P39900 106-470, species assumed): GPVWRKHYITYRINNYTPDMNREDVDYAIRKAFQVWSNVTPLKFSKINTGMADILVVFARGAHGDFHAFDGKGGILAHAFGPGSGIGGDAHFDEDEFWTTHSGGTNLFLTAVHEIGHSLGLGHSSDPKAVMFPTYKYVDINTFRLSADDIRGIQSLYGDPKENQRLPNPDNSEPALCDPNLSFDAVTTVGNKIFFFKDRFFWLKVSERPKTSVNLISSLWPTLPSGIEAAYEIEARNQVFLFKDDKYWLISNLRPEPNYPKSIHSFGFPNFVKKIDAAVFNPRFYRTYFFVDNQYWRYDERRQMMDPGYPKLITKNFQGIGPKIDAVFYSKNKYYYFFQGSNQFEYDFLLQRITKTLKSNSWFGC

[25] = molecular target: Neprilysin (Homo sapiens, UniProt P08473); experiment: Protease selectivity profiling; parameters: inhibition: dose or concentration left out as unconfirmed
[26] = molecular target: TACE (Homo sapiens, UniProt P78536); experiment: Protease selectivity profiling; parameters: inhibition: dose or concentration left out as unconfirmed
Chain of TACE (P78536 215-824): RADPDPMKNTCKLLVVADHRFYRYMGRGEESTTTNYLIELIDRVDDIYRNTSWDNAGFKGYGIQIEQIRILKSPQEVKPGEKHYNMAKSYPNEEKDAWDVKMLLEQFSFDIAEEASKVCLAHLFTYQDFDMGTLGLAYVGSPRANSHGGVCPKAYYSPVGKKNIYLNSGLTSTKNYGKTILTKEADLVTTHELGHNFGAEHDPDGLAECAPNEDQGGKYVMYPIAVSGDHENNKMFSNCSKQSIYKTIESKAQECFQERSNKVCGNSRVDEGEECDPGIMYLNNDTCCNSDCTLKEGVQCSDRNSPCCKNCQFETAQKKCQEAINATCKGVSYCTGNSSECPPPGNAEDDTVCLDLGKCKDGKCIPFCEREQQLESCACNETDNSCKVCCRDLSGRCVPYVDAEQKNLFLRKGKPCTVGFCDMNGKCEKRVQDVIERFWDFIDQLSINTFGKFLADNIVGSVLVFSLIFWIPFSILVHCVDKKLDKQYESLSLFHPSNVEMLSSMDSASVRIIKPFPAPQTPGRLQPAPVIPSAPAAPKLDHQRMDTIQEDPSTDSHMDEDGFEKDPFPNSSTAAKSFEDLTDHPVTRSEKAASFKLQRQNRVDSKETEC

[27] = molecular target: Thrombin (Homo sapiens, UniProt P00734); experiment: Protease selectivity profiling; settings: read-out: % Inhibition Thrombin
[28] = molecular target: uPA (Homo sapiens, UniProt P00749); experiment: Protease selectivity profiling; parameters: inhibition: dose or concentration left out as unconfirmed
[29] = molecular target: T5, MMP-12; experiment: Additional specificity assay, 10-point dilution IC50
[30] = single stranded peptide substrate, inhibitor 1 µM, duplicates

With `CNC(=O)[C@H](NC(=O)c1ccc(-c2ccc(CSc3nc4c(c(=O)[nH]3)CCC4)cc2)o1)C(C)C` [(R)-17a] the “loss of inhibition activity vs. MMP-13 compared to the (S)-enantiomer” value [1] was “ca. 12 fold” and the IC50 [1] was 72 nM.

`CC(C)[C@H](NS(=O)(=O)c1ccc(-c2ccc(CSc3nc4c(c(=O)[nH]3)CCC4)cc2)cc1)C(=O)O` [(S)-10a] was tested, and the IC50 [1] was 2.2 nM and the Ki [2] was 2.3 nM.

In the case of `CNC(=O)[C@@H](NC(=O)c1ccc(-c2ccc(CSc3nc4c(c(=O)[nH]3)CCC4)cc2)o1)C(C)C` [(S)-17a], the “improvement of MMP-13 inhibition potency compared to 5” value [1] is reported as ~1,000 fold, the IC50 [1] is reported as 5.9 nM and the “inhibition of MMP-2 in single dose assay” value [3] is reported as “moderately active inhibitor”. The “inhibition of MMP-8 in single dose assay” value [4] was “moderately active inhibitor”.

`O=C(O)CNS(=O)(=O)c1ccc(-c2ccc(CSc3nc4c(c(=O)[nH]3)CCC4)cc2)cc1` [Compound 10b] gave an IC50 [1] of 1.6 nM and a Ki [2] of 1.8 nM.

In the case of `NCCNS(=O)(=O)c1ccc(-c2ccc(CSc3nc4c(c(=O)[nH]3)CCC4)cc2)cc1` [Compound 10d], the inhibition at 1 µM [5, 30] is reported as 7%, the inhibition at 1 µM [6, 30] is reported as 1% and the inhibition at 1 µM [7, 30] is reported as 0%. The inhibition at 1 µM [8, 30] was 1%, the inhibition at 1 µM [9, 30] was 1% and the inhibition at 1 µM [10, 30] was 0%. It also gave an inhibition at 1 µM [11, 30] of 0%, an inhibition at 1 µM [12, 30] of 0% and an inhibition at 1 µM [13, 30] of 0%. For the same molecule, the inhibition at 1 µM [14, 30] was 1%, the inhibition at 1 µM [15, 30] was 3% and the inhibition at 1 µM [16, 30] was 0%. It also gave an inhibition at 1 µM [17, 30] of 9%, an inhibition at 1 µM [18, 30] of 12% and an inhibition at 1 µM [19, 30] of 3%. The inhibition at 1 µM [20, 30] was 0%, the inhibition at 1 µM [21, 30] was 0% and the inhibition [22] was 13%. For the same molecule, the inhibition at 1 µM [23, 30] was 7%, the inhibition at 1000 µM [24] was 40% and the inhibition at 1 µM [25, 30] was 3%. It also gave an inhibition at 1 µM [26, 30] of 4%, an inhibition ([27]; single stranded peptide substrate, inhibitor (text 1 μM), duplicates) of -3% and an inhibition at 1 µM [28, 30] of 3%. The “less active as inhibitor of MMP-12 than as MMP-13 inhibitor” value [29] was 140 fold and the IC50 ([29]; fTHP substrates (footnote), 10-point dilution) was 470 nM and 467 nM.

For `CC(C)[C@@H](NS(=O)(=O)c1ccc(-c2ccc(CSc3nc4c(c(=O)[nH]3)CCC4)cc2)cc1)C(=O)O` [Compound (R)-10a], the IC50 [1] was 2.4 nM and the Ki [2] was 1.6 nM.

In the case of `CNC(=O)[C@@H](NC(=O)c1ccc(-c2ccc(CSc3nc4c(c(=O)[nH]3)CCC4)c(F)c2)o1)C(C)C` [Compound (S)-17b], the inhibition ([5]; read-out: % Inhibition ACE) is reported as 0%, the inhibition ([6]; read-out: % Inhibition ACE2) is reported as 0% and the inhibition ([7]; read-out: % Inhibition ADAM10) is reported as 0%. It also gave an inhibition ([8]; read-out: % Inhibition BACE-1) of 0%, an inhibition ([9]; read-out: % Inhibition Caspase-1) of 0% and an inhibition ([10]; read-out: % Inhibition Caspase-2) of 0%. It also gave an inhibition ([11]; read-out: % Inhibition Caspase-3) of 0%, an inhibition ([12]; read-out: % Inhibition Caspase-5) of 0% and an inhibition ([13]; read-out: % Inhibition Caspase-6) of 0%. It also gave an inhibition ([14]; read-out: % Inhibition Caspase-7) of 8%, an inhibition ([15]; read-out: % Inhibition Cathepsin-D) of 0% and an inhibition ([16]; read-out: % Inhibition Cathepsin-K) of 2%. It also gave an inhibition ([17]; read-out: % Inhibition Cathepsin-L) of 7%, an inhibition ([18]; read-out: % Inhibition Cathepsin-S) of 2% and an inhibition ([19]; read-out: % Inhibition Factor-XA) of 0%. It also gave an inhibition ([20]; read-out: % Inhibition Furin) of 0%, an inhibition ([21]; read-out: % Inhibition IDE) of 0% and an inhibition ([23]; read-out: % Inhibition MMP-7) of 4%. The inhibition ([25]; read-out: % Inhibition Neprilysin) was -6%, the inhibition ([26]; read-out: % Inhibition TACE) was -3% and the inhibition [27] was -8%. It also gave an inhibition ([28]; read-out: % Inhibition uPA) of 1%.
